# Experimental data as given in the supplement of paper PMC4862054.
# Experiments:
# Hs578T [1] = experiment: drug sensitivity score (DSS), CellTiter-Glo (DSS (AUC-based score)); higher = stronger drug effect (viability inhibition or cytotoxicity); extreme values may be limits of the assay; settings: incubation time: 72 h
# Method in brief: (§1)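 For 72 h, breast cancer cell lines seeded at 20 µl suspension per well in 384-well plates were incubated with compound at 5 concentrations in 10-fold steps spanning a 10,000-fold range that differed by compound. The first reading was CellTox Green fluorescence at 485/520 nm, and the second was CellTiter-Glo luminescence after 10 min at room temperature. Both were normalised per plate to 0.1 % DMSO and a positive kill control, and the drug sensitivity score was obtained from the area under the fitted dose-response curve.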
# DU-4475 [2] = experiment: as above; settings: incubation time: 72 h
# Method in brief: as §1
# MCF-10A = experiment: as above; settings: incubation time: 72 h
# Method in brief: as §1
# CAL-85-1 [3] = experiment: as above; settings: incubation time: 72 h
# Method in brief: as §1
# HCC1143 [4] = experiment: as above; settings: incubation time: 72 h
# Method in brief: as §1
# BT-474 [5] = experiment: as above; settings: incubation time: 72 h
# Method in brief: as §1
# BT-549 [6] = experiment: as above; settings: incubation time: 72 h
# Method in brief: as §1
# SK-BR-3 [7] = experiment: as above; settings: incubation time: 72 h
# Method in brief: as §1
# CAL-148 [8] = experiment: as above; settings: incubation time: 72 h
# Method in brief: as §1
# HCC1937 [9] = experiment: as above; settings: incubation time: 72 h
# Method in brief: as §1
# MDA-MB-231 [10] = experiment: as above; settings: incubation time: 72 h
# Method in brief: as §1
# Hs578T [11] = experiment: normalised viability (% of control), CellTiter-Blue; higher = more viable cells (about 100 = DMSO control); settings: 100 nM; incubation time: 72 h
# Experimental: (§2)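 DSRT, CellTiter-Blue viability, 72 h incubation. Signal is normalised to DMSO and benzethonium chloride controls. Value is the normalised response at dose 3.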
# DU-4475 [12] = experiment: as above; settings: 10 nM; incubation time: 72 h
# Experimental: as §2
# CAL-85-1 [13] = experiment: as above; settings: 10 nM; incubation time: 72 h
# Experimental: as §2
# CAL-51 = experiment: as above; settings: 10 nM; incubation time: 72 h
# Experimental: as §2
# HDQ-P1 = experiment: as above; settings: 10 nM; incubation time: 72 h
# Experimental: as §2
# MFM-223 = experiment: as above; settings: 100 nM; incubation time: 72 h
# Experimental: as §2
# MDA-MB-453 = experiment: as above; settings: 10 nM; incubation time: 72 h
# Experimental: as §2
# HCC1599 = experiment: as above; settings: 100 nM; incubation time: 72 h
# Experimental: as §2
# HCC1143 [14] = experiment: as above; settings: 100 nM; incubation time: 72 h
# Experimental: as §2
# BT-474 [15] = experiment: as above; settings: 100 nM; incubation time: 72 h
# Experimental: as §2
# BT-549 [16] = experiment: as above; settings: 100 nM; incubation time: 72 h
# Experimental: as §2
# SK-BR-3 [17] = experiment: as above; settings: 100 nM; incubation time: 72 h
# Experimental: as §2
# CAL-148 [18] = experiment: as above; settings: 10 nM; incubation time: 72 h
# Experimental: as §2
# CAL-120 = experiment: as above; settings: 100 nM; incubation time: 72 h
# Experimental: as §2
# HCC1937 [19] = experiment: as above; settings: 100 nM; incubation time: 72 h
# Experimental: as §2
# MDA-MB-468 = experiment: as above; settings: 100 nM; incubation time: 72 h
# Experimental: as §2
# MDA-MB-436 = experiment: as above; settings: 100 nM; incubation time: 72 h
# Experimental: as §2
# MDA-MB-231 [20] = experiment: as above; settings: 100 nM; incubation time: 72 h
# Experimental: as §2
SMILES,drug sensitivity score (Hs578T [1]),drug sensitivity score (DU-4475 [2]),drug sensitivity score (MCF-10A),drug sensitivity score (CAL-85-1 [3]),drug sensitivity score (HCC1143 [4]),drug sensitivity score (BT-474 [5]),drug sensitivity score (BT-549 [6]),drug sensitivity score (SK-BR-3 [7]),drug sensitivity score (CAL-148 [8]),drug sensitivity score (HCC1937 [9]),drug sensitivity score (MDA-MB-231 [10]),normalised viability (Hs578T [11]) [%],normalised viability (DU-4475 [12]) [%],normalised viability (CAL-85-1 [13]) [%],normalised viability (CAL-51) [%],normalised viability (HDQ-P1) [%],normalised viability (MFM-223) [%],normalised viability (MDA-MB-453) [%],normalised viability (HCC1599) [%],normalised viability (HCC1143 [14]) [%],normalised viability (BT-474 [15]) [%],normalised viability (BT-549 [16]) [%],normalised viability (SK-BR-3 [17]) [%],normalised viability (CAL-148 [18]) [%],normalised viability (CAL-120) [%],normalised viability (HCC1937 [19]) [%],normalised viability (MDA-MB-468) [%],normalised viability (MDA-MB-436) [%],normalised viability (MDA-MB-231 [20]) [%]
CC(C)C(=O)Nc1ccc([N+](=O)[O-])c(C(F)(F)F)c1 [Flutamide],0,0,0,0,0,0,0,0,0,0,0,92,92.6,100,112,113,90,98.8,86.8,85.3,115,85.8,93.3,99.3,101,108,96.9,105,129
NC(=O)c1cccc2cn(-c3ccc([C@@H]4CCCNC4)cc3)nc12 [MK-4827],0,2.22,0,0,0,0,0,0,0.954,0,0,92.1,90.9,101,110,105,90.6,91.1,93.8,87.2,104,97.1,78,98.5,87.3,72.9,95,95.1,97.5
CC[C@H](CC#N)OC(=O)N[C@@H](C)c1cccc(NC(=O)Nc2ccc(-c3cnco3)c(OC)c2)c1 [AVN944],10.1,13.4,8.88,13.1,11.7,8.56,15.9,9.68,12.5,9.9,9.58,–,–,–,–,–,–,–,–,–,–,–,–,–,–,–,–,–,–
